IC50 data for 25 molecules are collected here from patent publication US9428508B2, “2,4-diamino-6,7-dihydro-5H-pyrrolo[2,3]pyrimidine derivatives as FAK/Pyk2 inhibitors” (Centaurus BioPharma Co., Ltd., priority 2011, dated 2016).

The target in one experiment is FAK (Homo sapiens (Human), UniProt Q05397). The experiment can be described thus: Biochemical assay for FAK activity (LANCE TR-FRET, ULight-poly Glu,Ala,Tyr substrate). Particulars: GST-tagged FAK, 120 min reaction. Put shortly:
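GST-tagged FAK (2.5 nM working stock) with ULight-poly Glu,Ala,Tyr (666 nM stock) and ATP (33.3 μM stock) in Tris pH 7.5/MgCl2/DTT/CHAPS buffer with BSA, 120 min; EDTA-quenched. Phosphorylation read by TR-FRET with Eu-anti-phosphotyrosine (PY20) antibody after 60 min. Compounds tested as 12-point 3-fold dilutions.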
In general terms: Time-resolved FRET reads energy transfer from a long-lived donor to a nearby acceptor.

The target of another experiment is PYK2 (Homo sapiens (Human), UniProt Q14289). As to the kind of experiment: Biochemical assay for PYK2 activity (LANCE TR-FRET, ULight-poly Glu,Ala,Tyr substrate). Particulars: GST-tagged PYK2, 40 min reaction. A digest of the protocol: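 GST-tagged human PYK2 (2 nM working stock) with ULight-poly Glu,Ala,Tyr (1:1:1) peptide (666 nM working stock) and ATP (46.6 μM working stock) in 40 mM Tris pH 7.5, MgCl2, 1 mM DTT, 1 mM CHAPS; 40 min reaction, EDTA quench. Phosphotyrosine read by LANCE Eu-anti-phosphotyrosine (PY20) TR-FRET after 60 min; 12-point 3-fold compound dilutions.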
Chain of PYK2 (Q14289 whole entry): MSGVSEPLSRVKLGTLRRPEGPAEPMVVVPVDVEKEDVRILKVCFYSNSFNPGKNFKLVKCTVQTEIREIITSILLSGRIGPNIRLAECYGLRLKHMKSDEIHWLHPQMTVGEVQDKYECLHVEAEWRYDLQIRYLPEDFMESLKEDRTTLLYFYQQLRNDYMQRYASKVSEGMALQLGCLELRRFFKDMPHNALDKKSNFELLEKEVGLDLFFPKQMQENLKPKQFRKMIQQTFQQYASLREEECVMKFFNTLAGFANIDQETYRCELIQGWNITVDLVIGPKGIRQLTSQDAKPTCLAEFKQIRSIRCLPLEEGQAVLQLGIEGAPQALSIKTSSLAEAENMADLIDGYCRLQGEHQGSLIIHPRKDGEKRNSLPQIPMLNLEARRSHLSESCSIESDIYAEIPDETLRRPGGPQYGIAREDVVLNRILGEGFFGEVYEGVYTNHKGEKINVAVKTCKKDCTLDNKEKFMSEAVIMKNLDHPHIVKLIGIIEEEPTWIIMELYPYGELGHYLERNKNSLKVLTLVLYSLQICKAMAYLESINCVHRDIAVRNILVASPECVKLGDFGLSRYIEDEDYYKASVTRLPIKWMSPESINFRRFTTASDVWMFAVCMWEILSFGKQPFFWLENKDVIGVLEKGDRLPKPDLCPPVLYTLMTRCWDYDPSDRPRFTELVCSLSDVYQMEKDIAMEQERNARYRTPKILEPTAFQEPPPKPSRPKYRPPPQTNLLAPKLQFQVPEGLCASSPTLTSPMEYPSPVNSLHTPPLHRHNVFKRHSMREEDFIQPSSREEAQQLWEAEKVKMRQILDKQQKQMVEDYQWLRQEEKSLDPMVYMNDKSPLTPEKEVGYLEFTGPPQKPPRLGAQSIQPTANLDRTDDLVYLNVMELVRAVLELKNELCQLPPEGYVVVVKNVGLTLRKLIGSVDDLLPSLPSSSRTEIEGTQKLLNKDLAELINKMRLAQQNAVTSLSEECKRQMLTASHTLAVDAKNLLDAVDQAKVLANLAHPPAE

Chain of FAK (Q05397 whole entry): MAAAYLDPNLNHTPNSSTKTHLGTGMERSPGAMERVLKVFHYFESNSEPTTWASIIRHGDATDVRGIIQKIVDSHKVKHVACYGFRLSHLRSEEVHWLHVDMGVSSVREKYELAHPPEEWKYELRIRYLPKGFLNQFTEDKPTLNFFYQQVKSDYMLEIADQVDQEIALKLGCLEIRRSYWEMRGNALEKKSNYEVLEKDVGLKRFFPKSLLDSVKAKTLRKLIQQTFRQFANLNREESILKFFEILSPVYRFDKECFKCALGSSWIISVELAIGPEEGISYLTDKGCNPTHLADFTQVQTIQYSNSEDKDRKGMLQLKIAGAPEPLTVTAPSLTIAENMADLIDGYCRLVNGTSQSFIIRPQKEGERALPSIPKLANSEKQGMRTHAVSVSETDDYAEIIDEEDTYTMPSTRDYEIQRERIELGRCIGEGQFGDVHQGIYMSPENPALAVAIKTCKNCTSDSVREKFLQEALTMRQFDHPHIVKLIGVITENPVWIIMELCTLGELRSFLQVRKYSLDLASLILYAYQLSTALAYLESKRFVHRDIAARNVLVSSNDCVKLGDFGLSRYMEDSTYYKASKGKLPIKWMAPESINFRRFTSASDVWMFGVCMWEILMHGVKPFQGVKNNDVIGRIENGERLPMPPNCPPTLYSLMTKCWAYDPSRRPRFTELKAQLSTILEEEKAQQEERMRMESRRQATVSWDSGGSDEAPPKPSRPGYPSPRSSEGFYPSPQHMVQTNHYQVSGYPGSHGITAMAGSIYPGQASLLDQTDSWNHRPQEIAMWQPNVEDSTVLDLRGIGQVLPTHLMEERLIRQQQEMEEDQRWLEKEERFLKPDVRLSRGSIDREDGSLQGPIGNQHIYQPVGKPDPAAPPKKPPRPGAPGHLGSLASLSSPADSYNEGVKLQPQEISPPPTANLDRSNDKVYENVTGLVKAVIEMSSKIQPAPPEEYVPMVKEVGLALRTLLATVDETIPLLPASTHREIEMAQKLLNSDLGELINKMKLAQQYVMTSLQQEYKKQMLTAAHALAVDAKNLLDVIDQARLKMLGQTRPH

The IC50 is the midpoint of a concentration-inhibition curve. Low values mean greater potency, high ones weaker potency. For `COc1cc(N2CCOCC2)ccc1Nc1nc2c(c(Nc3ccccc3S(=O)(=O)NC3CCCC3)n1)CCN2` [Example 7, N-cyclopentyl-2-(2-(2-methoxy-4-morpholinophenylamino)-6,7-dihydro-5H-pyrrolo[2,3-d]pyrimidin-4-ylamino)benzenesulfonamide], the IC50 is less than 0.05 µM at FAK and less than 0.1 µM against PYK2.
Turning to `Cc1csc(Nc2nc3c(c(Nc4ccccc4S(=O)(=O)NC(C)C)n2)CCN3)n1` [Example 91, N-isopropyl-2-(2-(4-methylthiazol-2-ylamino)-6,7-dihydro-5H-pyrrolo[2,3-d]pyrimidin-4-ylamino)benzenesulfonamide], the IC50 against FAK is more than 1 µM; at PYK2, less than 1 µM.
Turning to `CCN1C(=O)CCCc2c1ccc(Nc1nc3c(c(Nc4ccccc4C(=O)NC)n1)C(C)(C)CN3)c2OC` [Example 133, 2-(2-(1-ethyl-6-methoxy-2-oxo-2,3,4,5-tetrahydro-1H-benzo[b]azepin-7-ylamino)-5,5-dimethyl-6,7-dihydro-5H-pyrrolo[2,3-d]pyrimidin-4-ylamino)-N-methylbenzamide], the results for the IC50 at FAK and at PYK2 were less than 0.02 µM and less than 0.05 µM, respectively.
`COCCCNS(=O)(=O)c1ccccc1Nc1nc(Nc2ccc(N3CCOCC3)cc2OC)nc2c1CCN2` [Example 48, 2-(2-(2-methoxy-4-morpholinophenylamino)-6,7-dihydro-5H-pyrrolo[2,3-d]pyrimidin-4-ylamino)-N-(3-methoxypropyl)benzenesulfonamide]: the IC50 against FAK and on PYK2 was less than 0.1 µM in each case.
In the case of `COc1cc(N2CCOCC2)ccc1Nc1nc2c(c(Nc3ccccc3S(=O)(=O)NC3CCC3)n1)C(C)(C)CN2` [Example 104, N-cyclobutyl-2-(2-(2-methoxy-4-morpholinophenylamino)-5,5-dimethyl-6,7-dihydro-5H-pyrrolo[2,3-d]pyrimidin-4-ylamino)benzenesulfonamide], the IC50 at FAK and on PYK2 was less than 0.02 µM each time.
In the case of `COc1cc(N2CCOCC2)ccc1Nc1nc2c(c(Nc3ccccc3NC(C)=O)n1)C(C)CN2` (racemic) [Example 30, (±)-N-(2-(2-(2-methoxy-4-morpholinophenylamino)-5-methyl-6,7-dihydro-5H-pyrrolo[2,3-d]pyrimidin-4-ylamino)phenyl)acetamide], the IC50 against FAK and against PYK2 was less than 0.2 µM throughout.
With `CC(C)NS(=O)(=O)c1ccccc1Nc1nc(Nc2ccc(N3CCOCC3)cc2)nc2c1CCN2` [Example 52, N-isopropyl-2-(2-(4-morpholinophenylamino)-6,7-dihydro-5H-pyrrolo[2,3-d]pyrimidin-4-ylamino)benzenesulfonamide], the IC50 at FAK and against PYK2 was less than 0.02 µM in each case.
Take `COc1cc(NCCN2CCOCC2)ccc1Nc1nc2c(c(Nc3ccccc3S(=O)(=O)NC(C)C)n1)CCN2` [Example 85, N-isopropyl-2-(2-(2-methoxy-4-(2-morpholinoethylamino)phenylamino)-6,7-dihydro-5H-pyrrolo[2,3-d]pyrimidin-4-ylamino)benzenesulfonamide]: the IC50 on FAK and on PYK2 was less than 0.02 µM in each case.
Regarding `COc1cc(N2CCOCC2)ccc1Nc1nc2c(c(Nc3ccccc3S(=O)(=O)NC3CCC3)n1)CCN2` [Example 6, N-cyclobutyl-2-(2-(2-methoxy-4-morpholinophenylamino)-6,7-dihydro-5H-pyrrolo[2,3-d]pyrimidin-4-ylamino)benzenesulfonamide], the IC50 against FAK and at PYK2 was less than 0.02 µM in each case.
Turning to `CNC(=O)c1ccccc1Nc1nc(Nc2ccc(N3CCOCC3)c3c2OCCO3)nc2c1C(C)(C)CN2` [Example 129, 2-(5,5-dimethyl-2-(8-morpholino-2,3-dihydrobenzo[b][1,4]dioxin-5-ylamino)-6,7-dihydro-5H-pyrrolo[2,3-d]pyrimidin-4-ylamino)-N-methylbenzamide], the IC50 against FAK was less than 0.05 µM; against PYK2, less than 0.1 µM.
As for `COc1cc(N2CCOCC2)ccc1Nc1nc2c(c(Nc3ccccc3S(=O)(=O)NC3CCCCC3)n1)C1(CC1)CN2` [Example 149, N-cyclohexyl-2-(2′-(2-methoxy-4-morpholinophenylamino)-6′,7′-dihydrospiro[cyclopropane-1,5′-pyrrolo[2,3-d]pyrimidine]-4′-ylamino)benzenesulfonamide], the IC50 against FAK and against PYK2 was less than 0.5 µM in each case.
For the molecule `COc1cc(N2CCCCC2)ccc1Nc1nc2c(c(Nc3ccccc3S(=O)(=O)NC(C)C)n1)CCN2` [Example 68, N-isopropyl-2-(2-(2-methoxy-4-(piperidin-1-yl)phenylamino)-6,7-dihydro-5H-pyrrolo[2,3-d]pyrimidin-4-ylamino)benzenesulfonamide], the IC50 on FAK was less than 0.05 µM; on PYK2, less than 0.2 µM.
`COc1cc(N2CCOCC2)ccc1Nc1nc2c(c(Nc3cccc(C)n3)n1)C(C)CN2` (racemic) [Example 33, (±)-N^2-(2-methoxy-4-morpholinophenyl)-5-methyl-N^4-(6-methylpyridin-2-yl)-6,7-dihydro-5H-pyrrolo[2,3-d]pyrimidine-2,4-diamine]: the IC50 on FAK was less than 0.5 µM; at PYK2 it was less than 1 µM.
On to `CNC(=O)c1ccccc1Nc1nc(Nc2cc(C)nn2C)nc2c1CCN2` [Example 20, 2-(2-(1,3-dimethyl-1H-pyrazol-5-ylamino)-6,7-dihydro-5H-pyrrolo[2,3-d]pyrimidin-4-ylamino)-N-methylbenzamide], for which the results for the IC50 on FAK and against PYK2 were less than 1 µM and less than 0.5 µM, respectively.
Consider `COc1cc(N2CCOCC2)ccc1Nc1nc2c(c(Nc3ccccc3S(=O)(=O)NC3CCC3)n1)C(C)CN2` (racemic) [Example 27, (±)-N-cyclobutyl-2-(2-(2-methoxy-4-morpholinophenylamino)-5-methyl-6,7-dihydro-5H-pyrrolo[2,3-d]pyrimidin-4-ylamino)benzenesulfonamide], for which the IC50 on FAK and against PYK2 was less than 0.02 µM each time.
Take `CNC(=O)c1ccccc1Nc1nc(Nc2ccc3c(ccn3CCCN3CCOCC3)c2)nc2c1C(C)(C)CN2` [Example 134, 2-(5,5-dimethyl-2-(1-(3-morpholinopropyl)-1H-indol-5-ylamino)-6,7-dihydro-5H-pyrrolo[2,3-d]pyrimidin-4-ylamino)-N-methylbenzamide]: the IC50 on FAK and at PYK2 was less than 0.2 µM throughout.
Consider `COc1cc(N2CCOCC2)ccc1Nc1nc2c(c(Nc3ccccc3NC(C)=O)n1)C1(CC1)CN2` [Example 155, N-(2-(2′-(2-methoxy-4-morpholinophenylamino)-6′,7′-dihydrospiro[cyclopropane-1,5′-pyrrolo[2,3-d]pyrimidine]-4′-ylamino)phenyl)acetamide], for which the IC50 against FAK and at PYK2 was less than 0.05 µM each time.
In the case of `CNS(=O)(=O)c1ccccc1Nc1nc(Nc2ccc(N3CCOCC3)cc2OC)nc2c1C(C)(C)CN2` [Example 103, 2-(2-(2-methoxy-4-morpholinophenylamino)-5,5-dimethyl-6,7-dihydro-5H-pyrrolo[2,3-d]pyrimidin-4-ylamino)-N-methylbenzenesulfonamide], the IC50 on FAK and at PYK2 was less than 0.02 µM each time.
On to `CNC(=O)c1ccccc1Nc1nc(Nc2ccc(N3CCOCC3)cc2CO)nc2c1CCN2` [Example 14, 2-(2-(2-(hydroxymethyl)-4-morpholinophenylamino)-6,7-dihydro-5H-pyrrolo[2,3-d]pyrimidin-4-ylamino)-N-methylbenzamide], for which the IC50 against FAK and against PYK2 was more than 1 µM each time.
On to `CCC(C)NS(=O)(=O)c1ccccc1Nc1nc(Nc2ccc(N3CCOCC3)cc2OC)nc2c1CCN2` (centres unmarked) [Example 44, N-sec-butyl-2-(2-(2-methoxy-4-morpholinophenylamino)-6,7-dihydro-5H-pyrrolo[2,3-d]pyrimidin-4-ylamino)benzenesulfonamide], for which the IC50 on FAK and against PYK2 was less than 0.02 µM in each case.
Turning to `CNC(=O)c1ccccc1Nc1nc(Nc2cccc3c2ccn3CCCN2CCOCC2)nc2c1CCN2` [Example 22, N-methyl-2-(2-(1-(3-morpholinopropyl)-1H-indol-4-ylamino)-6,7-dihydro-5H-pyrrolo[2,3-d]pyrimidin-4-ylamino)benzamide], the IC50 on FAK is less than 0.1 µM; against PYK2, less than 0.2 µM.
For `COc1cc(N2CCOCC2)ccc1Nc1nc2c(c(Nc3ccccc3S(=O)(=O)NC(C)(C)C)n1)C1(CC1)CN2` [Example 136, N-tert-butyl-2-(2′-(2-methoxy-4-morpholinophenylamino)-6′,7′-dihydrospiro[cyclopropane-1,5′-pyrrolo[2,3-d]pyrimidine]-4′-ylamino)benzenesulfonamide], the IC50 against FAK and at PYK2 was less than 0.02 µM throughout.
With `COCCCNS(=O)(=O)c1ccccc1Nc1nc(Nc2ccc(N3CCOCC3)cc2OC)nc2c1C(C)(C)CN2` [Example 114, 2-(2-(2-methoxy-4-morpholinophenylamino)-5,5-dimethyl-6,7-dihydro-5H-pyrrolo[2,3-d]pyrimidin-4-ylamino)-N-(3-methoxypropyl)benzenesulfonamide], the IC50 against FAK and at PYK2 was less than 0.02 µM throughout.
For `CC(=O)Nc1cccc(Nc2nc3c(c(Nc4ccccc4S(=O)(=O)NC(C)C)n2)CCN3)c1` [Example 75, N-(3-(4-(2-(N-isopropylsulfamoyl)phenylamino)-6,7-dihydro-5H-pyrrolo[2,3-d]pyrimidin-2-ylamino)phenyl)acetamide], the IC50 against FAK and at PYK2 was less than 0.02 µM throughout.
With `COc1cc(N2CCOCC2)ccc1Nc1nc2c(c(Nc3ccccc3NC(C)=O)n1)CCN2` [Example 9, N-(2-(2-(2-methoxy-4-morpholinophenylamino)-6,7-dihydro-5H-pyrrolo[2,3-d]pyrimidin-4-ylamino)phenyl)acetamide], the IC50 at FAK and at PYK2 was less than 1 µM in each case.
